Molecular target: TNF-α (Homo sapiens, UniProt P01375)
Test: TNF-α Induced HEK Blue Cellular Assay
Assay type: cell-based
Conditions: HEK Blue TNFα reporter cells, TNF-α 100 pg/ml, 24 hrs at 37° C., secreted alkaline phosphatase (QUANTI-Blue, 620 nm)
Experimental: TNF-α Induced HEK Bluet Cellular Assay
Test articles were diluted in DMSO and serially diluted into 384 well assay plate (Corning 3765), at final concentrations ranging from […] to 0.5 nM. HEK Blue™ TNFα reporter cells were added at a final density of 10,000 cell per well in assay media [DMEM (Gibco, cat #21063-029), 10% fetal bovine serum (ExcelBio, cat #FND500), 1% Penicillin-Streptomycin (Solarbio, cat #P1400-100]. TNF-α (R&D 210-TA-020/CF) was then added to the assay plate at a final concentration of 100 pg/ml. This plate was then incubated for 24 hrs at 37° C. and 5% CO2. Secreted alkaline phosphatase expression was then measured using QUANTI-Blue™ (Invivogen), according to manufacturer instructions and read on an Envision microplate reader at 620 nm.
Inhibition data for test compound over a range of concentration was plotted as percentage inhibition of the test compound (100%=maximum inhibition). IC50 values were determined after correcting for background [(sample read-mean of low control)/(mean of high control-mean of low control)] where by the low control is DMSO without stimulation and high control is DMSO with stimulation. The IC50 is defined as the concentration of test compound which produces 50% inhibition and was quantified using the 4 parameter logistic equation to fit the data.

Chain of TNF-α (P01375 77-233 limits assumed): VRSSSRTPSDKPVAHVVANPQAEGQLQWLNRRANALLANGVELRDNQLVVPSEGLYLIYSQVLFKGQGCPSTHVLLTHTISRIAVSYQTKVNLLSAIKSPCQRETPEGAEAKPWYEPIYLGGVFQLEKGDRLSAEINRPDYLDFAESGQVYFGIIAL

Row | IC50 [µM] | Structure (SMILES)
1 | ≤ 0.1 | Cc1nc2cc(F)c(-c3ccc(P(C)(C)=O)nc3)cc2c(N[C@H](C)c2ccccc2F)c1Cl [Example 19, 3-chloro-6-[6-(dimethylphosphoryl)pyridin-3-yl]-7-fluoro-N-[(1R)-1-(2-fluorophenyl)ethyl]-2-methylquinolin-4-amine]
2 | ≤ 0.1 | CC[C@@H](Nc1c(Cl)c(C)nc2cc(F)c(-c3ccc(P(C)(C)=O)nc3)nc12)c1ccccc1F [Example 22, 3-chloro-6-[6-(dimethylphosphoryl)pyridin-3-yl]-7-fluoro-N-[(1R)-1-(2-fluorophenyl)propyl]-2-methyl-1,5-naphthyridin-4-amine]
3 | ≤ 0.1 | CC[C@H](Nc1c(Cl)c(C)nc2cc(F)c(-c3ccc(P(C)(C)=O)nc3)nc12)c1ccccc1F [Example 23, 3-chloro-6-[6-(dimethylphosphoryl)pyridin-3-yl]-7-fluoro-N-[(1S)-1-(2-fluorophenyl)propyl]-2-methyl-1,5-naphthyridin-4-amine]
4 | ≤ 0.1 | Cc1nc2cc(F)c(-c3ccc(P4(=O)CCCC4)nc3)nc2c(N[C@H](C)c2cc(C#N)ccc2F)c1Cl [Example 27, 3-[(1R)-1-({3-chloro-7-fluoro-2-methyl-6-[6-(1-oxo-1lambda5-phospholan-1-yl)pyridin-3-yl]-1,5-naphthyridin-4-yl}amino)ethyl]-4-fluorobenzonitrile]
5 | ≤ 0.1 | CCP(=O)(CC)c1ncc(-c2nc3c(N[C@H](C)c4cc(C#N)ccc4F)c(Cl)c(C)nc3cc2F)cn1 [Example 28, 3-[(1R)-1-({3-chloro-6-[2-(diethylphosphoryl)pyrimidin-5-yl]-7-fluoro-2-methyl-1,5-naphthyridin-4-yl}amino)ethyl]-4-fluorobenzonitrile]
6 | ≤ 0.1 | Cc1nc2cc(F)c(N3CCC(P(C)(C)=O)CC3)nc2c(N[C@H](C)c2cc(C#N)ccc2F)c1Cl [Example 31, 3-[(1R)-1-({3-chloro-6-[4-(dimethylphosphoryl)piperidin-1-yl]-7-fluoro-2-methyl-1,5-naphthyridin-4-yl}amino)ethyl]-4-fluorobenzonitrile]
7 | ≤ 0.1 | Cc1nc2cc(F)c(-c3ccc(OCP(C)(C)=O)nc3)nc2c(N[C@H](C)c2cc(C#N)ccc2F)c1Cl [Example 33, 3-[(1R)-1-[(3-chloro-6-{6-[(dimethylphosphoryl)methoxy]pyridin-3-yl}-7-fluoro-2-methyl-1,5-naphthyridin-4-yl)amino]ethyl]-4-fluorobenzonitrile]
8 | ≤ 0.1 | Cc1nc2cc(F)c(-c3ccc(P(C)(C)=O)nc3)nc2c(N[C@@H](c2cc(C#N)ccc2F)C(F)F)c1Cl [Example 34, (S)-3-(1-((3-chloro-6-(6-(dimethylphosphoryl)pyridin-3-yl)-7-fluoro-2-methyl-1,5-naphthyridin-4-yl)amino)-2,2-difluoroethyl)-4-fluorobenzonitrile]
9 | ≤ 1 | Cc1nc2cc(F)c(-c3ccc(P(C)(C)=O)nc3)nc2c(N[C@H](c2cc(C#N)ccc2F)C(F)F)c1Cl [Example 35, (R)-3-(1-((3-chloro-6-(6-(dimethylphosphoryl)pyridin-3-yl)-7-fluoro-2-methyl-1,5-naphthyridin-4-yl)amino)-2,2-difluoroethyl)-4-fluorobenzonitrile]
10 | 10 to 30 | Cc1nc2cc(F)c(-c3ccc(P(=O)(O)O)nc3)nc2c(N[C@H](C)c2cc(C#N)ccc2F)c1Cl [Example 37, diammonium 5-(7-chloro-8-{[(1R)-1-(5-cyano-2-fluorophenyl)ethyl]amino}-3-fluoro-6-methyl-1,5-naphthyridin-2-yl)pyridin-2-ylphosphonate]
11 | ≤ 1 | Cc1nc2cc(F)c(-c3ccc(CP(C)(C)=O)nc3)nc2c(N[C@H](C)c2cc(C#N)ccc2F)c1Cl [Example 39, (R)-3-(1-((3-chloro-6-(6-((dimethylphosphoryl)methyl)pyridin-3-yl)-7-fluoro-2-methyl-1,5-naphthyridin-4-yl)amino)ethyl)-4-fluorobenzonitrile]
12 | ≤ 0.1 | Cc1nc2ccc(-c3ccc(P(C)(C)=O)nc3)nc2c(N[C@H](C)c2cc(C#N)ccc2F)c1Cl [Example 40, 3-[(1R)-1-({3-chloro-6-[6-(dimethylphosphoryl)pyridin-3-yl]-2-methyl-1,5-naphthyridin-4-yl}amino)ethyl]-4-fluorobenzonitrile]
13 | ≤ 0.1 | CCP(=O)(CC)c1ccc(-c2nc3c(N[C@H](C)c4cc(C#N)ccc4F)c(Cl)c(C)nc3cc2F)cn1 [Example 42, 3-[(1R)-1-({3-chloro-6-[6-(diethylphosphoryl)pyridin-3-yl]-7-fluoro-2-methyl-1,5-naphthyridin-4-yl}amino)ethyl]-4-fluorobenzonitrile]
14 | ≤ 0.1 | Cc1nc2cc(F)c(-c3ccc(P(C)(C)=O)nc3)nc2c(N[C@H](C)c2cccc(C#N)c2)c1Cl [Example 43, 3-[(1R)-1-({3-chloro-6-[6-(dimethylphosphoryl)pyridin-3-yl]-7-fluoro-2-methyl-1,5-naphthyridin-4-yl}amino)ethyl]benzonitrile]

More lines, now with the values behind:

Row | Structure (SMILES) | IC50 [µM]
15 | CC[C@H](Nc1c(Cl)c(C)nc2cc(F)c(-c3cnc(P(C)(C)=O)nc3)nc12)c1ccccc1F [Example 17, 3-chloro-6-[2-(dimethylphosphoryl)pyrimidin-5-yl]-7-fluoro-N-[(1S)-1-(2-fluorophenyl)propyl]-2-methyl-1,5-naphthyridin-4-amine] | ≤ 1
16 | Cc1nc2cc(F)c(-c3ccc(P(C)(C)=O)nc3)nc2c(N[C@H](C)c2ccccc2F)c1Cl [Example 18, 3-chloro-6-[6-(dimethylphosphoryl)pyridin-3-yl]-7-fluoro-N-[(1R)-1-(2-fluorophenyl)ethyl]-2-methyl-1,5-naphthyridin-4-amine] | ≤ 0.1
17 | CC[C@@H](Nc1c(Cl)c(C)nc2cc(F)c(-c3ccc(P(C)(C)=O)nc3)nc12)c1cc(C#N)ccc1F [Example 20, 3-[(1R)-1-({3-chloro-6-[6-(dimethylphosphoryl)pyridin-3-yl]-7-fluoro-2-methyl-1,5-naphthyridin-4-yl}amino)propyl]-4-fluorobenzonitrile] | ≤ 0.1
18 | COP(=O)(O)c1ccc(-c2nc3c(N[C@H](C)c4cc(C#N)ccc4F)c(Cl)c(C)nc3cc2F)cn1 [Example 21, ammonium methyl 5-(7-chloro-8-{[(1R)-1-(5-cyano-2-fluorophenyl)ethyl]amino}-3-fluoro-6-methyl-1,5-naphthyridin-2-yl)pyridin-2-ylphosphonate] | ≤ 1
19 | CC[C@@H](Nc1c(Cl)c(C)nc2cc(F)c(-c3ccc(P(C)(C)=O)c(F)c3)nc12)c1ccccc1F [Example 24, 3-chloro-6-[4-(dimethylphosphoryl)-3-fluorophenyl]-7-fluoro-N-[(1R)-1-(2-fluorophenyl)propyl]-2-methyl-1,5-naphthyridin-4-amine] | ≤ 1
20 | Cc1nc2cc(F)c(-c3ccc(P(C)(C)=O)nc3)nc2c(N[C@H](c2ccccc2F)C(F)F)c1Cl [Example 26, (R)-(5-(7-chloro-8-((2,2-difluoro-1-(2-fluorophenyl)ethyl)amino)-3-fluoro-6-methyl-1,5-naphthyridin-2-yl)pyridin-2-yl)dimethylphosphine oxide] | 1 to 10
21 | Cc1nc2cc(F)c(-c3cnc(P(C)(C)=O)nc3)nc2c(NC(c2ccccc2F)C(F)F)c1Cl (centres unmarked) [Example 29, 3-chloro-N-[2,2-difluoro-1-(2-fluorophenyl)ethyl]-6-[2-(dimethylphosphoryl)pyrimidin-5-yl]-7-fluoro-2-methyl-1,5-naphthyridin-4-amine] | ≤ 1
22 | CC[C@H](Nc1c(Cl)c(C)nc2cc(F)c(-c3cnc(P(C)(C)=O)nc3)nc12)c1cc(C#N)ccc1F [Example 30, 3-[(1S)-1-({3-chloro-6-[2-(dimethylphosphoryl)pyrimidin-5-yl]-7-fluoro-2-methyl-1,5-naphthyridin-4-yl}amino)propyl]-4-fluorobenzonitrile] | ≤ 0.1
23 | CCOP(=O)(OCC)c1ccc(-c2nc3c(N[C@H](C)c4cc(C#N)ccc4F)c(Cl)c(C)nc3cc2F)cn1 [Example 32, diethyl 5-(7-chloro-8-{[(1R)-1-(5-cyano-2-fluorophenyl)ethyl]amino}-3-fluoro-6-methyl-1,5-naphthyridin-2-yl)pyridin-2-ylphosphonate] | ≤ 0.1
24 | Cc1nc2cc(F)c(-c3cnc(P(C)(C)=O)nc3)nc2c(N[C@@H](c2cc(C#N)ccc2F)C(F)F)c1Cl [Example 36, (S)-3-(1-((3-chloro-6-(2-(dimethylphosphoryl)pyrimidin-5-yl)-7-fluoro-2-methyl-1,5-naphthyridin-4-yl)amino)-2,2-difluoroethyl)-4-fluorobenzonitrile] | ≤ 1
25 | Cc1nc2cc(F)c(-c3cnc(P(C)(C)=O)nc3)nc2c(N[C@H](c2cc(C#N)ccc2F)C(F)F)c1Cl [Example 38, (R)-3-(1-((3-chloro-6-(2-(dimethylphosphoryl)pyrimidin-5-yl)-7-fluoro-2-methyl-1,5-naphthyridin-4-yl)amino)-2,2-difluoroethyl)-4-fluorobenzonitrile] | ≤ 1
26 | Cc1nc2ccc(-c3cnc(P(C)(C)=O)nc3)nc2c(N[C@H](C)c2cc(C#N)ccc2F)c1Cl [Example 41, 3-[(1R)-1-({3-chloro-6-[2-(dimethylphosphoryl)pyrimidin-5-yl]-2-methyl-1,5-naphthyridin-4-yl}amino)ethyl]-4-fluorobenzonitrile] | ≤ 1

Source: patent US12338262B2 (Forward Therapeutics, Inc., priority 2022, dated 2025)
